Where two headings read alike, the source gives them in different places.
What was measured:
Weight change, Example 1 = type: in vivo, human
Protocol: Treatment with aticaprant as described herein has several advantages over the treatments in the art. […] As used herein, the term “weight gain” refers to an increase in the weight of patient, relative to the weight of the patient before taking aticaprant or the weight of the patient that is assessed at the time of the initial administration of the aticaprant. In certain embodiments, the patient may actually see a decrease in overall weight, relative to the weight of the patient before taking aticaprant.
At the lead-in baseline timepoint, the mean weight for subjects in the placebo group was 76.17 kg compared to 78.66 in the aticaprant group. After 6 weeks in the double-blind treatment phase, the mean weight in the placebo group was 75.75 kg compared to 78.57 kg in the aticaprant group. […] This is unexpected because other adjunctive treatments for MDD result in a mean weight increase. See, Thase M, et al. J Clin Psych. 2015: 76(9), 1224-1231; Thase, J Clin Psych. 2015, 76(9): 1232-1240; El Khalili, Int J Neuropsychopharmacol. 2010, 13, 917-932; Marcus, J. Clin. Psychopharmacol. […] Nashville, Tenn, ACNP, 2008; Earley, American College of Neuropsychopharmacology, 2007, Annual Meeting Abstracts (Boca Raton, Fla, Dec. 9-13, 2007). Nashville, TN, ACNP, 2007). See, Table 29.

[1] = Maximum plasma concentration (Cmax) of aticaprant, Example 1; type: in vivo; conditions: human, oral, 10 mg, eITT, read-out: Cmax, Arithmetic Mean (SD)
Protocol: Aticaprant was supplied as 5-mg capsules. Placebo was supplied as matching capsules. All subjects took 2 capsules QD. The capsules were taken daily from Day 2 to Day 78 in fasting condition with some water (fasting for at least 4 hours before dosing). Medication was taken before breakfast. If the subject has forgotten to take the medication before breakfast, this was done before the next following meal, at the latest at dinner of the same day. If the subject remembered later than dinner, the dose of that day was omitted, and the subject took the dose before breakfast on the next day.
Cmax is defined as maximum plasma concentration of aticaprant. […] Here ‘N’ (number of subjects analyzed) includes the number of subjects evaluable for this endpoint. Here ‘n’ (number analyzed) included all subjects evaluable for specified time point categories.

For Cc1cc(C)cc(C2CCCN2Cc2ccc(Oc3ccc(C(N)=O)cc3F)cc2)c1 (centres unmarked) [aticaprant, 3-fluoro-4-4-2-(3,5-dimethylphenyl)pyrrolidin-1-yl-methylphenoxybenzamide], the “Mean weight, Lead-in Baseline, mean (SE)” value (Weight change, Example 1; Lead-in Baseline, n = 85) was 78.66 (1.65) kg, the “Mean weight, Screening, mean (SE)” value (Weight change, Example 1; Screening, n = 85) was 78.42 (1.65) kg and the “Mean weight, Withdrawal Baseline, mean (SE)” value (Weight change, Example 1; Withdrawal Baseline (after 6 weeks double-blind treatment), n = 85) was 78.57 (1.71) kg. For the same molecule, the “Mean weight, Relative % Change” value (Weight change, Example 1; Withdrawal vs Lead-in, n = 85) was −0.11%, the mean weight (Weight change, Example 1; after 6 weeks in the double-blind treatment phase) was 78.57 kg and the “weight over the 6-week double blind treatment period” value (Weight change, Example 1; both groups) was “remained relatively stable”. The mean weight (Weight change, Example 1; lead-in baseline timepoint) was 78.66 kg, the “Mean weight, Absolute Change (Withdrawal − Lead-in)” value (Weight change, Example 1; n = 85) was -0.09 kg and the Cmax ([1]; Week 1 (n = 56)) was 32.7 ± 10.9 ng/mL. It also gave a Cmax ([1]; Week 3 (n = 56)) of 33.5 ± 11.1 ng/mL and a Cmax ([1]; Week 6 (n = 56)) of 34.3 ± 11.1 ng/mL.
